Results from patent US20260315564A1, “THE USE OF TP3 (THYMOPENTIN ANALOG) BY INCREASING THE ACTIVITY AND NUMBER OF T-CELLS INVOLVED IN THE DEFENSE MECHANISM OF THE IMMUNE SYSTEM OF MAMMALS, FOR THE PREVENTION OR TREATMENT OF DISEASES TO EXTEND THE AVERAGE LIFESPAN” (priority 2023, published 2026).
Marks after values point to notes of the source that are not given here. Residues, ends and D or L forms follow the SMILES beside them.

Key:
[1] = tested on: Thy1+, Lyt 1+ (helper) and Lyt 2+ (suppressor) cells; experiment: Thy1+ cells and helper/suppressor (Lyt 1/Lyt 2) cell ratio in bone marrow and spleen of Balb/c nu/nu mice; assay type: in vivo; conditions: for Lyt 1/Lyt 2 (helper/suppressor cell ratio) / Thy1+ (%): 10^-5 M/mice/ip every other day for 3 weeks (9x)
Experimental: • D.1/Direct cytotoxicity test/for the detection of Thy, Lyt antigens (Fathman 1979, in Immunol Meth I. Eds. Lefkovits, Pernis, Acad Press, New York, pp. 212-213.) was used. Subpopulation ratios were determined from bone marrow cells, thymus, and spleen cells isolated from the lymphatic organs of mice. The cell suspensions (1.087-1.088 g/cm3) were centrifuged ona density gradient (2000 rpm, 20 minutes), and the cells were washed 3× with RPMI1640 medium containing 0.3% BSA, then adjusted to 107/ml. Thyl, Lyt 1, Lyt2 monoclonal antibodies (McAb/Ando I. (ICRF Human Tumor Immunol. UCM Med Sch. London) were obtained. 25 μl McAb and 25 ul cell suspension were incubated (60′, 40C1), after centrifugation (1250 rpm 10′), the cells were resuspended with 40 μul of diluted (1:50) rabbit complement, then incubated (370C, 60′). The cell suspensions were stained with 1:5 dilution of Eosin Y (Jansen). the ratio of live to non-living cells was determined.
n=8/group; Treatment: 10^-5 M/mice/ip every other day for 3 weeks (9×/ip.)

[2] = tested on: PFC; experiment: PFC cell count in aged mice; assay type: in vivo, aged mice (Balb/c); conditions: first value column under head 'PFC IgM/logx^2'; aged mice 18 months old; n = 8/group; young control 6.3, aged 3.7
Experimental: (§1) 1.3./Determination of the number of plaque-forming cells (PFC) (using rat spleen cells) The chopped splenocytes were placed in a culture medium (Parker 199) and then shaken with a shaker for 1 minute. The cells were suctioned from the surface of the rapidly settling tissue debris. Red blood cells were removed osmotically. Cell suspensions were adjusted to 107/ml. The cell suspensions were mixed with a 15% BVVT cell suspension in a ratio of 2:1. PFC was determined with the mixture using a modified chamber technique according to Channingham et al., 1966). Before filling the chamber, 50 μl of fresh diluted guinea pig serum (1:20) was added. The chambers (2-2/slide) were incubated (370C 45′) after sealing with paraffin, the formed plaques were counted under a microscope (at 400× magnification) within 2 hours Marker tests related to the rejection reaction of an adult thymus-depleted mouse skin graft 1.4./Rejection of skin transplants in nude mice after treatment with TP fragments (Snell et al., Transplantation 5, 492, 1967).
TP effect on antibody production and PFC cell count in aged mice (Balb/c)

[3] = tested on: healthy human lymphocytes; experiment: E-rosette test, ex vivo on healthy human cells; assay type: cell-based; parameters: effect ex vivo on healthy human cells (rosette-forming cells): unit not given here; conditions: for effect ex vivo on healthy human cells (rosette-forming cells): control 27.8 (TP5), 30.3 (TP3)
Experimental: Blood from donors was used for our experiments, where the blood samples were used either from animals or human donors. The heparinized blood samples were separated on a (FicolUromiro/Pharmacia-Bracco) gradient (Boyum 1968). 2×10^6 and 107 lymphocytes/ml cells were tested in E-rosette tests, the blood donors were the following animals: • Rat: Hannover Wistar (Richter) newborn rats were used to study the maturation of the immune response. As our mothers, 12 (maximum) randomized newborns were placed (21±10C, humidity: min. 65%) in a test litter. • Guinea pig: Donkin-Hartley (Lati) 250-300 g male animals were included for the DTH reaction test. • 2.3.3/Mice: Mouse strains of different genetic backgrounds were used: CFLP (outbred) from the Lati stock), Balb/c (inbred) and Balb/c nu/nu mice from the SzBC/Szeged stock.
In a preliminary study, the ED75 inhibitory effect of azathioprine was determined (Verhagen et al., 1980) and 500 μg/ml was used during the studies. An equal volume (200 μl) of activityinhibiting and isolated cell suspension and peptides ([…]) were measured. After 1 h (370C) incubation, the cell suspensions received 200 μl of 1% SRBC suspension and then centrifuged (90×g 5 minutes), 400 μl of the supernatant was aspirated.
The number of rosette-forming cells was counted. The activity was determined as percent recovery (R %). […]

[4] = tested on: Active E-rosette forming cells (human lymphocytes); experiment: Active E-rosette forming cells; assay type: cell-based; conditions: control 6.3 (TP5), 5.2 (TP3)
Experimental: The test was carried out according to the method of (Wybran and Fundenberg 1973). 107/ml lymphocytes from either healthy blood donors or autoimmune patients were included in the tests. The effect of the substances was tested in the presence of 100 μl of […]. test compound. After an incubation period, 100 μul of cell suspension was placed on a glass slide, fixed for 3 minutes (with 50 μl of 3% glutaraldehyde solution), and stored in a humid chamber until evaluation.

[5] = tested on: transplanted skin graft rejection; experiment: Rejection of the transplanted skin graft in adult thymus-removed (Tx) mice; assay type: in vivo, C57BL mice (adult thymectomized); conditions: for rejection of the transplanted skin graft: n = 8/group
Experimental: as §1
After thymectomy, mice were treated with doses of 1 mg/kg, i.p. once a week for six weeks. Thy 1+, Lyt1+, and Lyt2+ in the spleen cells of mice at the age of 13 weeks cell proportions were determined based on what was previously described.
5. The Effect of TP3 was Tested on the Activity of the Immune System by Rejection of Skin Graft
• in adult thymectomized (Tx) C57BL mice.

[6] = tested on: peritoneal macrophages; experiment: Phagocytic function of peritoneal macrophages ex vivo in CFLP outbred mice (CY-immunosuppressed); conditions: for macrophage phagocytosis ex vivo: CY-treated mice, n = 15, untreated control 194.5, CY 111.5
Text: 6.2./Examination of the Effect on the Phagocytic Function of Peritoneal Macrophages CFLP Outbred in Mice
Macrophage phagocytosis ex vivo (X=yeast/100 cells)

[7] = High-dose / long-term tolerability in animals; assay type: in vivo; conditions: 12 months of use, in words
[8] = tested on: T cells; conditions: Schlesinger et al. 1978, in words; cited from earlier work

Question: With CC(C)[C@H](NC(=O)[C@H](CC(=O)O)NC(=O)[C@H](CCCCN)NC(=O)[C@@H](N)CCCN=C(N)N)C(=O)N[C@@H](Cc1ccc(O)cc1)C(=O)O [TP5] (H-RKDVY-OH) as the compound, how does the “Lyt 1/Lyt 2 (helper/suppressor cell ratio)” value ([1]; bone marrow (Csontvelő), control 0.97) read?
Answer: Its value is 1.95.

Question: What about the “Thy1+ (%)” value ([1]; bone marrow (Csontvelő), control 3.7) of the same compound?
Answer: Its value is 47.3%.

Question: What about the “Lyt 1/Lyt 2 (helper/suppressor cell ratio)” value ([1]; spleen (Lép), control 1.10) of the same compound?
Answer: The value was 2.48.

Question: What about the “Thy1+ (%)” value ([1]; spleen (Lép), control 5.4) of the same compound?
Answer: Its value is 71.0%.

Question: What about the “change in the spleen” value ([1]; spleen, 10^-5 M/mice/ip, 9x) of the same compound?
Answer: The value was 130%.

Question: And the PFC [2]?
Answer: Its PFC is 6.1*.

Question: What about the “effect ex vivo on healthy human cells (rosette-forming cells)” value (from here on “effect ex vivo on healthy human cells”) ([3]; 10^-5 mol/l) of the same compound?
Answer: Its value is 26.9.

Question: What about the “effect ex vivo on healthy human cells” value ([3]; 10^-6 mol/l) of the same compound?
Answer: Its value is 24.4.

Question: And the “effect ex vivo on healthy human cells” value ([3]; 10^-7 mol/l)?
Answer: Its value is 29.4.

Question: And the “effect ex vivo on healthy human cells” value ([3]; 10^-8 mol/l)?
Answer: The value was 27.1.

Question: And the “effect ex vivo on healthy human cells” value ([3]; 10^-9 mol/l)?
Answer: Its value is 26.1.

Question: And the “effect ex vivo on healthy human cells” value ([3]; 10^-11 mol/l)?
Answer: The value was 25.5.

Question: What about the “effect ex vivo on healthy human cells” value ([3]; 10^-12 mol/l) of the same compound?
Answer: Its value is 28.4.

Question: And the “effect ex vivo on healthy human cells” value ([3]; 10^-13 mol/l)?
Answer: The value was 25.9.

Question: And the “effect ex vivo on healthy human cells” value ([3]; 10^-14 mol/l)?
Answer: The value was 26.1.

Question: And the “activity on lymphocytes from healthy individuals” value ([3]; in words)?
Answer: Its value is “ineffective”.

Question: What about the “Active E-rosette forming cells” value ([4]; 10^-5 mol/l) of the same compound?
Answer: The value was 8.6*.

Question: What about the “Active E-rosette forming cells” value ([4]; 10^-7 mol/l) of the same compound?
Answer: The value was 7.5.

Question: And the “Active E-rosette forming cells” value ([4]; 10^-9 mol/l)?
Answer: The value was 7.2.

Question: And the “Active E-rosette forming cells” value ([4]; 10^-11 mol/l)?
Answer: The value was 10.7*.

Question: What about the “Active E-rosette forming cells” value ([4]; 10^-13 mol/l) of the same compound?
Answer: Its value is 7.9*.

Question: And the “rejection of the transplanted skin graft” value ([5]; female Tx C57BL mice, untreated control 14.5, Tx 54.6)?
Answer: The value was 23.1**.

Question: And the “rejection of the transplanted skin graft” value ([5]; male Tx C57BL mice, untreated control 27.8, Tx 59.8)?
Answer: The value was 41.3.

Question: And the “recovery of T cells / shortening of skin graft survival time” value ([5]; male mice, rank in words)?
Answer: Its value is “TP5>TP3”.

Question: And the “phagocytic activity of macrophages” value ([6]; CY immunosuppression, 1.0 mg/kg/sc (TP3), in words)?
Answer: Its value is “ineffective”.

Question: And the “macrophage phagocytosis ex vivo” value ([6]; TP dose 0.1 (mg/kg/sc))?
Answer: The value was 149.6 yeast/100 cells.

Question: And the “macrophage phagocytosis ex vivo” value ([6]; TP dose 1.0 (mg/kg/sc))?
Answer: The value was 123.1 yeast/100 cells.

Question: What about the “macrophage phagocytosis ex vivo” value ([6]; TP dose 10.0 (mg/kg/sc)) of the same compound?
Answer: The value was 95.6 yeast/100 cells.

Question: What about the side effects [7] of the same compound?
Answer: Its side effects is “did not cause any signs of side effects”.

Question: And the “differentiation of T cells” value [8]?
Answer: The value was “induces the differentiation of T cells”.
